Values after ≈ are worked out from the molar mass of the structure shown.
Tests used:
Experiment in all cases: Minimum Inhibitory Concentration (MIC), broth serial dilution
Format in all cases: cell-based
Aspergillus niger = conditions: 168 h; E=Aspergillus niger; Sabouraud Dextrose Broth, 10^5 cells or spores/ml, 28°C, molds incubated seven days
Protocol: (§1) Solutions of the experimental compounds in dimethyl sulfoxide were serially diluted in nutrient broth (Tryptic Soy Broth for bacteria and Sabouraud Dextrose Broth for fungi) in microliter plates. Equal volumes of a broth suspension of bacteria (10^6 CFU/ml) or fungi (10^5 cells or spores/ml) were added to each dilution, and the plates were incubated at 37°C (bacteria and yeast) or 28°C (molds). Bacteria, yeast and molds were incubated two, five and seven days respectively before determining the highest inhibitory dilution.

Aureobasidium pullulans = conditions: F=Aureobasidium pullulans; Sabouraud Dextrose Broth, 10^5 cells or spores/ml
Protocol: as §1

Candida albicans = conditions: 120 h; C=Candida albicans; Sabouraud Dextrose Broth, 10^5 cells or spores/ml, 37°C, yeast incubated five days
Protocol: as §1

Escherichia coli = conditions: 48 h; A=Escherichia coli; Tryptic Soy Broth, 10^6 CFU/ml, 37°C, bacteria incubated two days
Protocol: as §1

Fusarium sp. = conditions: 168 h; D=Fusarium sp.; Sabouraud Dextrose Broth, 10^5 cells or spores/ml, 28°C, molds incubated seven days
Protocol: as §1

Staphylococcus aureus = conditions: 48 h; B=Staphylococcus aureus; Tryptic Soy Broth, 10^6 CFU/ml, 37°C, bacteria incubated two days
Protocol: as §1

SMILES | MIC (Aspergillus niger) | MIC (Aureobasidium pullulans) | MIC (Candida albicans) | MIC (Escherichia coli) | MIC (Fusarium sp.) | MIC (Staphylococcus aureus)
Cc1cc(CC(C)CC(C)(C)C)n(O)c(=O)c1 (stereo not drawn) [OCTOPIROX® biocide, reference compound] | 2 µg/mL (≈ 8.43 µM) | 16 to 32 µg/mL (≈ 67.4 to 135 µM) | 2 µg/mL (≈ 8.43 µM) | 128 µg/mL (≈ 539 µM) | 2 µg/mL (≈ 8.43 µM) | 64 µg/mL (≈ 270 µM)
CCCCCCCCOc1cccc(=S)n1O [Example 3, 1-hydroxy-6-octyloxypyridine-2(1H)-thione] | 8 µg/mL (≈ 31.3 µM) | 16 µg/mL (≈ 62.7 µM) | 4 µg/mL (≈ 15.7 µM) | 16 µg/mL (≈ 62.7 µM) | 4 µg/mL (≈ 15.7 µM) | 16 µg/mL (≈ 62.7 µM)
CC(CCOc1cccc(=O)n1O)CC(C)(C)C (stereo not drawn) [Example 1, 1-Hydroxy-6-(3,5,5-trimethylhexyloxy)-pyridine-2(1H)-one] | 16 µg/mL (≈ 63.2 µM) | 2 µg/mL (≈ 7.89 µM) | 2 µg/mL (≈ 7.89 µM) | 32 µg/mL (≈ 126 µM) | 2 µg/mL (≈ 7.89 µM) | 32 µg/mL (≈ 126 µM)
CCCCCCCCOc1cccc(=O)n1O [Example 2, 1-Hydroxy-6-octyloxypyridine-2(1H)-one] | 32 µg/mL (≈ 134 µM) | 4 µg/mL (≈ 16.7 µM) | 4 µg/mL (≈ 16.7 µM) | 32 µg/mL (≈ 134 µM) | 2 µg/mL (≈ 8.36 µM) | 16 µg/mL (≈ 66.9 µM)

— EP0724571B1, “SUBSTITUTED PYRIDINE-2-ONES AND SUBSTITUTED PYRIDINE-2-THIONES AS BIOCIDES” (Arch Chemicals, Inc., priority 1993, dated 1995)
